# Measurements taken from patent US20260098019A1, “SYNTHESIS OF NSAID CONJUGATES AS ANTI-INFLAMMATORY AGENTS USING THE MOLECULAR HYBRIDIZATION” (AUGUSTA UNIVERSITY RESEARCH INSTITUTE, INC., priority 2022, published 2026).
# Marks after values point to notes of the source that are not given here.
# Assays:
# [1] = tested on: acetic acid-induced writhing; experiment: acetic acid-induced writhing test (peripheral analgesic); format: in vivo, albino mice; settings: for 1/(observed property): 1/(% inhibition) peripheral analgesic; for Observed property: % inhibition/protection peripheral analgesic; for % Inhibition/protection: vs control; for % Inhibition/protection / Writing reflex ± SE: 10 mg/kg indomethacin mol equivalent i.p.; for Potency: % inhibition/protection compared to indomethacin; for Writing reflex ± SE: number of writhing counted for 30 min
# Description: Peripheral analgesic activity was measured by the standard acetic acid-induced writhing test in mice. […] One hour after the i.p. administration, each mouse was injected with 0.1 ml of 1% acetic acid solution i.p. The control group animals were given sterile/distilled water with few drops of Tween 80. Starting 5 min after the acetic acid injection, the number of muscular contractions in each mouse was counted for 30 min. A significant reduction in the number of writhing by a conjugate compared with control animals was considered as a positive analgesic response. Percentage protection was calculated according to equ. (3), where n is the average number of writhing in the control group and n′ is the average number of writhing in the treated group. The % potency was calculated by equ. (4) (Table 2).
# [2] = tested on: hot plate latency; experiment: hot plate test (central analgesic); format: in vivo, albino mice; settings: for Observed property: % Protection central analgesic (120 min); for Latency period ± SE: 10 mg/kg indomethacin mol equivalent i.p., cutoff 15 seconds; for % Protection: vs control; for Potency: at 120 min. compared to indomethacin
# Description: An in vivo standard hot plate test was performed. […] The control group animals were given sterile/distilled water with few drops of Tween 80. The maximum cutoff time was 15 seconds to prevent tissue damage. Response latencies were measured at 30, 60, 90 and 120 inns. The % protection was calculated by equ. (5), where, Ti, To are the latency time mean of the tested compound and control group respectively (Table 3).
# [3] = biological target: COX-1 (UniProt P05979); format: biochemical, human; settings: ± SD
# Chain of COX-1 (P05979 whole entry): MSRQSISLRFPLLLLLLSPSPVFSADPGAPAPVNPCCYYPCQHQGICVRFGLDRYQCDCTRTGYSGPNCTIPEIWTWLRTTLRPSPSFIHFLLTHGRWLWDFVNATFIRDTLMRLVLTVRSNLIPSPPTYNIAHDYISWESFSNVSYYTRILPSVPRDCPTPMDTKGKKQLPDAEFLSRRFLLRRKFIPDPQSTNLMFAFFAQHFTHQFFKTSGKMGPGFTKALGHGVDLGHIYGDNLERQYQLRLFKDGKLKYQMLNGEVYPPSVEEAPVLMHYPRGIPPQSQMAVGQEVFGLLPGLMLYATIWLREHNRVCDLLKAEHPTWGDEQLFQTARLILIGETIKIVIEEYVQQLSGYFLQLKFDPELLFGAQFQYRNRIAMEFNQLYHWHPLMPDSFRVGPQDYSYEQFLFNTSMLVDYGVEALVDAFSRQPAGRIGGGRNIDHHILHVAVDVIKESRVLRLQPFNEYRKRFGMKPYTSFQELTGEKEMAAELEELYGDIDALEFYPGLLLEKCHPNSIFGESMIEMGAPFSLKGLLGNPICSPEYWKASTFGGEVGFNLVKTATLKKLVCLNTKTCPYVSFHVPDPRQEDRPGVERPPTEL
# Description: (§1) Rev. […] Thromb. Vasc. […] Rev. […] Rev. […] Rev. Oncol. Hematol. […] Curr. Pharm. Des. […] Luong, et al., Nat. Struct. […] A. and Marnett, L. J., Chem. Rev. […] Drug Discov. […] Biomol.
# [4] = tested on: gastric mucosa; experiment: ulcerogenic liability; settings: for ulcers or erosions to the gastric / ulcerogenic liability (in words): mice; for ulcers or erosions to the gastric / ulcerogenic liability (in words) / % Incidence of ulcer divided by 10 / Average of ulcer number / Average severity of ulcer / Number of animals with ulcer: oral; for % Incidence of ulcer divided by 10 / Average of ulcer number / Average severity of ulcer / Number of animals with ulcer: three successive days, 10 mg/kg indomethacin mol equivalent; for Number of animals with ulcer: 6 animals; for Ulcer index: sum of the three values
# Description: The ulcerogenic liability of conjugates was determined in albino mice following a standard method. Animals of either sex (pregnant females were excluded) weighing 20-25 g were divided into 8 groups of 6 animals each. The animals fasted 18 h before drug administration. […] The control group animals were given water with a few drops of Tween 80. The animals were sacrificed by cervical dislocation and the stomach was removed, opened along the greater curvature, and rinsed with saline. The gastric mucosa was examined with a magnifying lens (10×) for the presence of lesions and erosions. The ulcer index was calculated (Table 4) and the degree of ulcerogenic effect was expressed in terms of: (1) the percentage incidence of ulcers divided by 10; (2) average number of ulcers per stomach; and (3) average severity of ulcers. The ulcer index is the value that resulted from the sum of the above three values.
# [5] = biological target: T1, COX-2 (Homo sapiens, UniProt P35354); experiment: Inhibition of COX-2; format: biochemical
# T1 construct: purchased BioVision Incorporated K547-100 and K548-100 (for COX-1/2)
# T1 sequence (P35354 18-604): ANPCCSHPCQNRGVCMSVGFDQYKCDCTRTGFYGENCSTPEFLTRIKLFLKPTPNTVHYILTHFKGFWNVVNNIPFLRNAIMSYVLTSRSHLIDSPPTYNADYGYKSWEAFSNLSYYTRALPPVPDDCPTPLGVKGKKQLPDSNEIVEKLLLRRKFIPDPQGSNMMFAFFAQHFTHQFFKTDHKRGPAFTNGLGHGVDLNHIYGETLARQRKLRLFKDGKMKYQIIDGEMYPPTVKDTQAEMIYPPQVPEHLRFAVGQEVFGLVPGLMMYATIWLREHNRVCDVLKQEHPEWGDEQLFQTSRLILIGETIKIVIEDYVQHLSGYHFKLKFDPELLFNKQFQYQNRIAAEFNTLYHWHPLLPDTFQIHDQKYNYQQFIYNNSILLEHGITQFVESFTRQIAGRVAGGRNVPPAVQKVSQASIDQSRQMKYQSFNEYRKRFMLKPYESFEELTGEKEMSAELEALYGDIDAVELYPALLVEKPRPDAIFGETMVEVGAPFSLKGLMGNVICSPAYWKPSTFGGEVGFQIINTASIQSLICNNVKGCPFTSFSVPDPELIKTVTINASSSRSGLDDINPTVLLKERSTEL
# Description: as §1
smiles,measurement,setting,value
"CC(C)Cc1ccc(C(C)C(=O)OCc2cn(-c3ccccc3Cl)nn2)cc1 (centres unmarked) [Compound 5a, (1-(2-Chlorophenyl)-1H-1,2,3-triazol-4-yl)methyl 2-(4-isobutylphenyl)propanoate]",1/(observed property),[1],0.01201
same,Observed property,[1],83.3
same,% Inhibition/protection,[1],83.3%
same,Observed property,[2],54.5
same,IC50,[3],17.2 ± 0.41 µM
same,ulcers or erosions to the gastric / ulcerogenic liability (in words),[4],none and No ulcerogenic liability
same,% Incidence of ulcer divided by 10,[4],0
same,Average of ulcer number,[4],0
same,Average severity of ulcer,[4],0
same,Number of animals with ulcer,[4],0
same,Ulcer index,[4],0
"CC(C)Cc1ccc(C(C)C(=O)OCc2cn(-c3ccc(Cl)cc3)nn2)cc1 (centres unmarked) [Compound 5b, (1-(4-Chlorophenyl)-1H-1,2,3-triazol-4-yl)methyl 2-(4-isobutylphenyl)propanoate]",1/(observed property),[1],0.01143
same,Observed property,[1],87.5
same,% Inhibition/protection,[1],87.5%
same,Observed property,[2],27.1
same,IC50,[3],119 ± 3.4 µM
same,ulcers or erosions to the gastric / ulcerogenic liability (in words),[4],none and No ulcerogenic liability
same,% Incidence of ulcer divided by 10,[4],0
same,Average of ulcer number,[4],0
same,Average severity of ulcer,[4],0
same,Number of animals with ulcer,[4],0
same,Ulcer index,[4],0
"CC(C)Cc1ccc(C(C)C(=O)OCc2cn(-c3ccc(F)cc3)nn2)cc1 (centres unmarked) [Compound 5c, (1-(4-Fluorophenyl)-1H-1,2,3-triazol-4-yl)methyl 2-(4-isobutylphenyl)propanoate]",1/(observed property),[1],0.01201
same,Observed property,[1],83.3
same,Observed property,[2],18
same,% protection compared with parent compound ibuprofen,[2]; at 30 min,1.8 folds
"Cc1ccc(-n2cc(COC(=O)C(C)c3ccc(CC(C)C)cc3)nn2)cc1 (centres unmarked) [Compound 5d, (1-(p-Tolyl)-1H-1,2,3-triazol-4-yl)methyl 2-(4-isobutylphenyl)propanoate]",1/(observed property),[1],0.01212
same,Observed property,[1],82.5
same,Observed property,[2],1.2
same,IC50,[3],9.64 ± 0.27 µM
same,SI,[5]; SI=IC50 (COX-1)/IC50 (COX-2),2.158
same,IC50,[5]; ± SD,4.47 ± 0.13 µM
same,ulcers or erosions to the gastric / ulcerogenic liability (in words),[4],none and No ulcerogenic liability
same,% Incidence of ulcer divided by 10,[4],0
same,Average of ulcer number,[4],0
same,Average severity of ulcer,[4],0
same,Number of animals with ulcer,[4],0
same,Ulcer index,[4],0
"COc1ccc(-n2cc(COC(=O)C(C)c3ccc(CC(C)C)cc3)nn2)cc1 (centres unmarked) [Compound 5f, (1-(4-Methoxyphenyl)-1H-1,2,3-triazol-4-yl)methyl 2-(4-isobutylphenyl)propanoate]",1/(observed property),[1],0.0125
same,Observed property,[1],80.0
same,Observed property,[2],0.2
"CC(C)Cc1ccc(C(C)C(=O)OCc2cn(-c3ccc([N+](=O)[O-])cc3)nn2)cc1 (centres unmarked) [Compound 5g, (1-(4-Nitrophenyl)-1H-1,2,3-triazol-4-yl)methyl 2-(4-isobutylphenyl)propanoate]",1/(observed property),[1],0.01538
same,Observed property,[1],65.0
same,Observed property,[2],28.1
"C#CCOC(=O)Cc1c(C)n(C(=O)c2ccc(Cl)cc2)c2ccc(OC)cc12 [Compound 7, prop-2-yn-1-yl 2-(1-(4-chlorobenzoyl)-5-methoxy-2-methyl-1H-indol-3-yl) acetate]",Potency,[1],124.4%
same,Writing reflex ± SE,[1],4.3 ± 0.5
same,% Inhibition/protection,[1],89.3%
same,Latency period ± SE,[2]; After 30 min.,6.68 s
same,% Protection,[2]; After 30 min.,2.0* (0.0) %
same,Latency period ± SE,[2]; After 60 min.,9.54 ± 1.6 s
same,% Protection,[2]; After 60 min.,(31.2) %
same,Latency period ± SE,[2]; After 90 min.,11.18 ± 1.5 s
same,% Protection,[2]; After 90 min.,(25.5) %
same,Latency period ± SE,[2]; After 120 min.,10.78 ± 1.8 s
same,% Protection,[2]; After 120 min.,(19.6) %
same,Potency,[2],34.7%
"COc1ccc2c(c1)c(CC(=O)OCc1cn(-c3ccccc3Cl)nn1)c(C)n2C(=O)c1ccc(Cl)cc1 [Compound 8a, (1-(2-Chlorophenyl)-1H-1,2,3-triazol-4-yl)methyl 2-(1-(4-chlorobenzoyl)-5-methoxy-2-methyl-H-indol-3-yl)acetate]",1/(observed property),[1],0.02028
same,Potency,[1],68.7%
same,Observed property,[1],49.3
same,Writing reflex ± SE,[1],20.3 ± 1.8
same,% Inhibition/protection,[1],49.3%
same,Observed property,[2],51.3
same,Latency period ± SE,[2]; After 30 min.,12.19 s
same,% Protection,[2]; After 30 min.,(82.5) %
same,Latency period ± SE,[2]; After 60 min.,13.51 s
same,% Protection,[2]; After 60 min.,1.7** (85.8) %
same,Latency period ± SE,[2]; After 90 min.,13.85 ± 1.4 s
same,% Protection,[2]; After 90 min.,(55.4) %
same,Latency period ± SE,[2]; After 120 min.,13.63 ± 1.3 s
same,% Protection,[2]; After 120 min.,(51.3) %
same,Potency,[2],90.8%
"COc1ccc2c(c1)c(CC(=O)OCc1cn(-c3ccc(Cl)cc3)nn1)c(C)n2C(=O)c1ccc(Cl)cc1 [Compound 8b, (1-(4-Chlorophenyl)-1H-1,2,3-triazol-4-yl)methyl 2-(1-(4-chlorobenzoyl)-5-methoxy-2-methyl-1H-indol-3-yl)acetate]",1/(observed property),[1],0.0216
same,Observed property,[1],46.3
same,Observed property,[2],9.7
"COc1ccc2c(c1)c(CC(=O)OCc1cn(-c3ccc(F)cc3)nn1)c(C)n2C(=O)c1ccc(Cl)cc1 [Compound 8c, (1-(4-Fluorophenyl)-1H-1,2,3-triazol-4-yl)methyl 2-(1-(4-chlorobenzoyl)-5-methoxy-2-methyl-1H-indol-3-yl)acetate]",1/(observed property),[1],0.02421
same,Observed property,[1],41.3
same,Observed property,[2],48.1
"COc1ccc2c(c1)c(CC(=O)OCc1cn(-c3ccc(C)cc3)nn1)c(C)n2C(=O)c1ccc(Cl)cc1 [Compound 8d, (1-(p-Tolyl)-1H-1,2,3-triazol-4-yl)methyl 2-(1-(4-chlorobenzoyl)-5-methoxy-2-methyl-1H-indol-3-yl)acetate]",1/(observed property),[1],0.016
same,Observed property,[1],62.5
same,Observed property,[2],48.6
"COc1ccc2c(c1)c(CC(=O)OCc1cn(-c3ccccc3OC)nn1)c(C)n2C(=O)c1ccc(Cl)cc1 [Compound 8e, (1-(2-Methoxyphenyl)-1H-1,2,3-triazol-4-yl)methyl 2-(1-(4-chlorobenzoyl)-5-methoxy-2-methyl-1H-indol-3-yl)acetate]",1/(observed property),[1],0.01238
same,Observed property,[1],80.8
same,Observed property,[2],28.9
"COc1ccc(-n2cc(COC(=O)Cc3c(C)n(C(=O)c4ccc(Cl)cc4)c4ccc(OC)cc34)nn2)cc1 [Compound 8f, (1-(4-Methoxyphenyl)-1H-1,2,3-triazol-4-yl)methyl 2-(1-(4-chlorobenzoyl)-5-methoxy-2-methyl-1H-indol-3-yl)acetate]",1/(observed property),[1],0.01497
same,Observed property,[1],66.8
same,Observed property,[2],66.5
"COc1ccc2c(c1)c(CC(=O)OCc1cn(-c3ccc([N+](=O)[O-])cc3)nn1)c(C)n2C(=O)c1ccc(Cl)cc1 [Compound 8g, (1-(4-Nitrophenyl)-1H-1,2,3-triazol-4-yl)methyl 2-(1-(4-chlorobenzoyl)-5-methoxy-2-methyl-1H-indol-3-yl)acetate]",1/(observed property),[1],0.01038
same,Observed property,[1],96.3
same,Observed property,[2],2.7
"CC(C)Cc1ccc(C(C)C(=O)O)cc1 (centres unmarked) [Ibu, 2-(4-isobutylphenyl)propanoic acid, reference compound]",Potency,[1],81.5%
same,% Inhibition/protection,[1],58.5%
same,% Protection,[2]; After 30 min.,(61.7) %
same,% Protection,[2]; After 120 min.,(54.3) %
same,Potency,[2],96.1%
same,% Incidence of ulcer divided by 10,[4],3.33
same,Average of ulcer number,[4],0.33
same,Average severity of ulcer,[4],0.67
same,Number of animals with ulcer,[4],2/6
